From patent US12121510B2 (Cedars-Sinai Medical Center, priority 2016, dated 2024)
Read-outs that look alike come from different tables or passages of the source.

Key:
ACHN = assay: Renal cancer cell growth IC50 (crystal violet); assay type: cell-based, human
Description: (§1) Exemplary Embodiments are generally performed as follows, unless otherwise noted. Simvastatin is purchased from Ark Pharm, Inc. (Arlington Heights, IL). Cisplatin (CIS) is purchased from MedKoo Biosciences, Inc. (Chapel Hill, NC). Dihydroartemisinin is purchased from TCI America (Portland, OR). All other chemicals and reagents are purchased from standard sources such as Sigma-Aldrich and/or VWR and are of highest quality available. Puromycin dihydrochloride was purchased from Alfa Aesar (Tewksbury, MA). Deionized water ([…]) used for making solutions is obtained from Milli-Q Direct Ultrapure Water System from Millipore (Billerica, MA, USA). All intermediates are characterized by 1H NMR and mass analysis and the purity of compounds are analyzed by HPLC. 1H NMR data are collected on Bruker 400 MHz spectrometers using standard parameters; chemical shifts are reported in ppm (δ) in reference to residual non-deuterated solvent. ESI mass spectroscopy analysis is performed using a Thermo Fisher LTQ Orbitrap Elite system. IC50 is the half maximal inhibitory concentration and determined is determined by crystal violet assay unless otherwise noted.
(§2) The crystal violet assay is performed as follows, unless otherwise noted. Cell lines are supplemented with RPMI 1640 medium, 10% fetal bovine serum, 1% PenStrep, and placed in a humidified atmosphere containing 5% CO2 at 37° C. 5,000 cells/well renal cancer cells and 10,000 cells/well lymphoma cells are seeded in 96 well plates in 100 microliter medium/per well for 24 h. […] Renal cancer cells are fixed with 3.7% paraformaldehyde for 15 minutes and are stained with Crystal violet solution (0.5% in 25% methanol) for 30 minutes. After rinsing with water cell layers are dried and decolorized with Sorenson citrate with shaking for 20 minutes. Light absorption of the extracted supernatant is read at 595 nm. Lymphoma cell growth was evaluated using MTT and cells are incubated for 4 hours. 100 microliters of isopropanol is added, and the extracted supernatant fraction is read at absorption maximum of 595 nm.
(§3) Standard cell culture conditions typically are RPMI 1640 medium, 10% fetal bovine serum, 1% PenStrep, and are performed in a humidified atmosphere containing 5% CO2 at 37° C. Generally, 5,000 cells/well-10,000 cells/well are seeded in 96 well plates in 100 microliter medium/per well for 24 h, or as described in Example 16, unless otherwise noted. Certain cells require specialized media, growth factors, antibiotics, or culture condition adjustments, as will be apparent to a person of ordinary skill in the art.
as §2, with “Cell” for “The crystal violet assay is performed as follows, unless otherwise noted. Cell”, “cultured as follows. […]” for “supplemented with RPMI 1640 medium, 10% fetal bovine serum, 1% PenStrep, and placed in a humidified atmosphere containing 5% CO2 at 37° C.”, “is” for “was”

SKRC = assay: Renal cancer cell growth IC50 (crystal violet); assay type: cell-based, human
Description: as §1, §2, §3
as §2, with “Cell” for “The crystal violet assay is performed as follows, unless otherwise noted. Cell”, “cultured as follows. […]” for “supplemented with RPMI 1640 medium, 10% fetal bovine serum, 1% PenStrep, and placed in a humidified atmosphere containing 5% CO2 at 37° C.”, “is” for “was”

Caki-1 = assay: Renal cancer cell growth IC50 (crystal violet); assay type: cell-based, human; settings: Caki-1
Description: as §1, §2, §3
as §2, with “Cell” for “The crystal violet assay is performed as follows, unless otherwise noted. Cell”, “cultured as follows. […]” for “supplemented with RPMI 1640 medium, 10% fetal bovine serum, 1% PenStrep, and placed in a humidified atmosphere containing 5% CO2 at 37° C.”, “is” for “was”

o-786 = assay: Renal cancer cell growth IC50 (crystal violet); assay type: cell-based, human
Description: as §1, §2, §3
as §2, with “Cell” for “The crystal violet assay is performed as follows, unless otherwise noted. Cell”, “cultured as follows. […]” for “supplemented with RPMI 1640 medium, 10% fetal bovine serum, 1% PenStrep, and placed in a humidified atmosphere containing 5% CO2 at 37° C.”, “is” for “was”

OV90 and OVCA 433 = assay: Growth IC50 in ovarian cancer cell strains; assay type: cell-based, human; settings: 72 h; read-out: IC50 across ovarian cancer cell strains OV90 and OVCA 433
Method: (§4) OV90 and OVCA433 are grown in vitro according to their standard culturing conditions, and an assay such as the crystal violet assay is performed.

[1] = tested on: human lymphoma cell lines (Daudi, Raji, Namalwa, Ramos and CA-46); assay: Growth IC50 in lymphoma cell line panel; assay type: cell-based; settings: all lymphoma cell lines; 72 hours; read-out: IC50 across lymphoma cell lines
Method: as §2

22Rv1 = assay: Cancer cell growth IC50 (crystal violet); assay type: cell-based, human; settings: Example 15
Description: as §1
(§5) The crystal violet assay is performed as follows, unless otherwise noted. Cell lines are supplemented with RPMI 1640 medium, 10% fetal bovine serum, 1% PenStrep, and placed in a humidified atmosphere containing 5% CO2 at 37° C. 5,000 cells/well renal cancer cells and 10,000 cells/well lymphoma cells are seeded in 96 well plates in 100 microliter medium/per well for 24 h. […] Renal cancer cells are fixed with 3.7% paraformaldehyde for 15 minutes and are stained with Crystal violet solution (0.5% in 25% methanol) for 30 minutes. After rinsing with water cell layers are dried and decolorized with Sorenson citrate with shaking for 20 minutes. Light absorption of the extracted supernatant is read at 595 nm. Lymphoma cell growth was evaluated using MTT and cells are incubated for 4 hours. 100 microliters of isopropanol is added, and the extracted supernatant fraction is read at absorption maximum of 595 nm. […]

[2] = tested on: Ramos, a B-cell lymphoma, cultured as 3-D spheroids; assay: Cell viability IC50 in 3-D spheroids; assay type: cell-based, human; settings: Ramos 3-D spheroids; 72 h; single agent
Description: as §1
Cancer cells were Ramos, a B-cell lymphoma, cultured as 3-D spheroids, cultured according to their standard culturing conditions.

OVCA 433 = assay: Ovarian cancer cell growth IC50 (crystal violet); assay type: cell-based, human
Description: as §1, §3, §4

OV90 = assay: Ovarian cancer cell growth IC50 (crystal violet); assay type: cell-based, human
Description: as §1, §3, §4

[3] = tested on: renal cancer and B-cell lymphoma cell lines; assay: Growth IC50 in renal cancer and B-cell lymphoma panel; assay type: cell-based, human; settings: all cancer cell lines of Example 16; 72 h; read-out: IC50 across renal cancer and B-cell lymphoma cell lines
Method: as §2, with “Cell” for “The crystal violet assay is performed as follows, unless otherwise noted. Cell”, “cultured as follows. […]” for “supplemented with RPMI 1640 medium, 10% fetal bovine serum, 1% PenStrep, and placed in a humidified atmosphere containing 5% CO2 at 37° C.”, “is” for “was”

[4] = tested on: human kidney carcinoma cell lines (ACHN, Caki-1, 0-786, SKRC); assay: Growth IC50 in kidney carcinoma cell line panel; assay type: cell-based; settings: all kidney cancer cell lines; 72 hours; read-out: IC50 across kidney cancer cell lines
Method: as §2
The significance for all results was p<0.0001.

[5] = tested on: normal mouse kidney and liver; assay: Immunohistochemical staining of normal kidney and liver; assay type: in vivo; settings: mice harbored with human Burkitt's lymphoma
Description: These normal kidney and liver tissues were obtained from mice harbored with human Burkitt's lymphoma.

[6] = tested on: A549/DDP (Cisplatin Resistant); assay: Cell proliferation IC50, Crystal Violet assay; assay type: cell-based, human; settings: 72 h
MIAPaCa II = assay: Cancer cell growth IC50 / sensitization (crystal violet); assay type: cell-based; settings: Example 15
Description: as §1, §5

[7] = 72 hours, read-out: Half maximal inhibitory concentration (IC50)

N.N.[Cl][Pt][Cl] [CIS, cis-diamminedichloridoplatinum (II)]
> 64 µM: IC50 (ACHN; [7]) | IC50 (ACHN; Example 15, read-out: IC50) | IC50 (SKRC; [7]) | IC50 (SKRC; Example 15, read-out: IC50) | IC50 (Caki-1; [7]) | IC50 (Caki-1; Example 15, read-out: IC50) | IC50 (o-786; Example 15, O-786, read-out: IC50) | IC50 (o-786; o-786, 72 hours, read-out: Half maximal inhibitory concentration (IC50)) | IC50 (OV90 and OVCA 433) | IC50 [1] | IC50 (22Rv1) | IC50 (OVCA 433; Example 15, OV433) | IC50 (OVCA 433; OVCA 433, 72 h) | IC50 (OV90; 72 h) | IC50 (OV90; Example 15) | IC50 [3] | IC50 [4] | IC50 (MIAPaCa II)
87.6 µM: IC50 ([6]; read-out: IC50 of CIS, Mean, A549/DDP, CIS alone)
90 ± 1 µM: IC50 ([6]; A549/DDP (Cisplatin Resistant), single agent, mean ± SEM, read-out: IC50)
81.5 µM: IC50 [2]
elevated: Apoptosis markers (cleaved caspas-3 and M30) / damage in normal kidney and liver [5]
